B1: HB-EGF: EGF-like domain of HB-EGF expressed in bacteria as thioredoxin (TRX) fusion protein, used as immunogen (protein)
chain: DLQEADLDLLRVTLSSKPQALATPNKEEHGKRKKKGKGLGKKRDPCLRKYKDFCIHGECKYVKELRAPSCICHPGYHGERCHGLSL

Tests used:
[1] = test system: BxPC3 pancreatic tumor cells; experiment: Cell proliferation assay (MTT), BxPC3; format: cell-based, human; conditions: gemcitabine 50 mg/ml
Procedure: (§1) FIGS. 4A-B depict effective inhibition of proliferation and tumorigenicity (in vitro and in vivo) of human pancreatic cancer cells by a combination of anti-TGFα and anti-HB-EGF mAbs. […] BxPC3 cells (2×10^4) were seeded in a 96-well plate and allowed to adhere overnight, prior to the addition of anti-TGFα or anti-HB-EGF mAbs (each at 30 μg/ml), or a mixture of both mAbs (each at 15 μg/ml). Cell proliferation was determined in hexaplicates after 96 hours using the MTT method. Averages±S.D. are shown. The experiment was repeated twice. […] Female nude mice (6 week old) were inoculated subcutaneously with 2×10^6 BxPC3 cells. […]
(§2) FIGS. 5A-B depict effective inhibition of human pancreatic cancer cell growth (in vitro and in vivo) by a combination of two mAbs and chemotherapy. […] Of note, body weight monitoring detected no consistent trends and differences other than a slow gain of weight (data not shown).
BxPC3 pancreatic tumor cells were plated on 96-well plates (2,000 cells/well), in hexaplicates. […] Proliferation was measured after 24, 48 and 72 hours using the MTT method as was previously described [Mossmann T. J., Immunol Methods. […] Absorbance was determined at 570 nm.
BxPC3 pancreatic tumor cells were plated on 96-well plates (2,000 cells/well), in hexaplicates. […] Proliferation was measured after 24, 48 and 72 hours using the MTT method. […] Absorbance was determined at 570 nm.

BxPC3 xenografts = experiment: Anti-tumor activity in nude mice, BxPC3 xenografts; format: in vivo; conditions: two intraperitoneal injections (days 16 and 21), 150 mg/kg body weight
Procedure: as §1, §2
(§3) Female atymic NCr-nude mice (6 week old; Harlen, Israel) were inoculated subcutaneously with 2×10^6 human cancer cells. […] Tumor volumes were monitored twice a week, and body weights were measured once a week.
as §3

[2] = test system: EGFR phosphorylation on tyrosine residues; experiment: Biological activity of purified recombinant ligands: EGFR phosphorylation on tyrosine residues; format: cell-based; conditions: TRX-TGFα 2, 20, 200 ng/ml; TRX-HB-EGF 3, 30, 300 ng/ml; 10 minute incubation
Procedure: FIGS. 1A-E depict construction, expression and biological activity of recombinant EGF-like ligands and detection of TGFα blocking antibodies using a GPI-anchored TGFα. […] Residue numbers are indicated. […] Molecular weight markers are indicated in kilodaltons. […] Cells were seeded in a 24-well plate, washed and incubated with increasing concentrations of the purified fusion proteins (TRX-TGFα: 2, 20, 200 ng/ml; TRX-HB-EGF: 3, 30, 300 ng/ml). EGF (10 ng/ml) was used as a positive control. After 10 minute incubation, the cells were lysed, and cleared extracts were immunoblotted (IB) with an anti-phosphotyrosine (P-Tyr) antibody. […] Residue numbers refer to TGFα. Cysteine residues of the EGF-like domain are highlighted. […] Cells were seeded in a 24-well plate, washed and incubated with or without TGFα (5 ng/ml), and with increasing volumes of an anti-serum from TGFα-immunized mice (0.2, 2, 4, 6, 8 and 10 μl of serum diluted in 120 μl total; control: 10 μl serum from a naive animal). An anti-phosphotyrosine mAb was used to detect phosphorylated EGFR.
Cells were seeded in a 24-well plate. Twenty-four hours later, cells were washed and incubated with different agents. After ten minutes of incubation, the cells were lysed and cleared extracts were electrophoresed, then immunoblotted with an anti-phosphotyrosine mAb, an anti-EGFR mAb (HeLa) or with an anti-ErbB-3 mAb (T47D).

Molecule	growth inhibition of cultured BxPC3 cells (MTT), gemcitabine alone [1]	inhibition of tumor growth, BxPC3 xenografts (BxPC3 xenografts)	ability to induce EGFR phosphorylation on tyrosine residues [2]
Nc1ccn([C@@H]2O[C@H](CO)[C@@H](O)C2(F)F)c(=O)n1 [gemcitabine]	growth inhibitory effect	more than 85%	–
TGFα: EGF-like domain of TGFα expressed in bacteria as thioredoxin (TRX) fusion protein, used as immunogen	–	–	functionally active conformation
B1	–	–	functionally active conformation

— patent US9518988B2, “Antibodies and methods of using same for treating ErbB/ErbB ligands associated diseases” (Yeda Research and Development Co. Ltd., priority 2010, dated 2016)
